One may read the Emax as the maximal effect, on the per cent scale that the assay sets. What is called melting point is the temperature, or range, at which the solid turns liquid.

One series concerns the target T1, GST-hLGK1 (GST added to the amino terminal of human liver GK) (Homo sapiens, UniProt P35557).
T1 construct: with a BamHI site added to immediately before the initiation codon; made in house; host or cells: Escherichia coli BL21 (Stratagene), plasmid pGEX6P-2/hLGK1
T1 sequence (P35557 1-464 isoform P35557-3): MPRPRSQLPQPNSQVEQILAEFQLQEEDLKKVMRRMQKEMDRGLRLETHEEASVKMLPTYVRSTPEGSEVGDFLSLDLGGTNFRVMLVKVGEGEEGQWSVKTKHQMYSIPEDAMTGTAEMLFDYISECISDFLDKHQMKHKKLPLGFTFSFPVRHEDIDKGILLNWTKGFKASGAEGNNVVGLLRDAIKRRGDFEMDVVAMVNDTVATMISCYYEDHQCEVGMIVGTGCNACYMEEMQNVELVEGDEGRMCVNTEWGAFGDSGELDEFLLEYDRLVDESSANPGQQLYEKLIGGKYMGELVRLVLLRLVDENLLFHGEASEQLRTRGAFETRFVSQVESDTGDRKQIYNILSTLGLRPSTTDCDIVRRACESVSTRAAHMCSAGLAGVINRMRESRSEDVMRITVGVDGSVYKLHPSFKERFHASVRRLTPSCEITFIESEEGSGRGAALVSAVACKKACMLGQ
Kind of series: Measurement of GK activation value. It counts as biochemical. To be noted: test compound final concentration 10 μmol/L; reaction rate divided by that of control group (50% DMSO without test compound); Mant-ATP substrate, D-glucose, 37° C., 60 min. As for the experimental part: To each well of a 384-well black plate (Nalge Nunc International K.K.) was added 5 μL of 50% dimethyl sulfoxide solution containing test compound diluted to 100 μmol/L. Then, GST-hLGK1 obtained in Reference Example 2A was diluted with measurement buffer (containing 50 mM HEPES (pH 7.4), 200 mM KCl, 5 mM MgCl2, 2.5 mM DTT and 50 μM 2′-(or-3′)—O—(N-methylanthraniloyl) adenosine 5′-triphosphate (Mant-ATP) (Jena BioScience)) to 6 μg/mL and 35 μL thereof was added to each well.
Each well was stood at 37° C. for 10 min, 25 mM D-glucose solution (10 μL) was added to start the reaction. The final concentration of the test compound was 10 μmol/L.
Each, well after the reaction was stood at 37° C. for 60 min, and the reaction was quenched by adding 25 μL of a quenching solution (containing 200 mM HEPES (pH 7.4), 20 mM MgCl2, 200 mM EDTA, 0.03% Triton-X 100, 0.3% Coating 3 reagent (Caliper Life Sciences, Inc.)).
2′-(or-3′)-O-(N-methylanthraniloyl)adenosine 5′-triphosphate (Mant-ATP, substrate) and Mant-ADP (reaction resultant product) were separated from each well after the reaction by a microchip type capillary electrophoresis apparatus 250 HTS (Caliper Life Sciences, Inc.). The reaction rate [(reaction resultant product peak height)/(reaction resultant product peak height+substrate peak height)×100(%)] was calculated from the ratio of the substrate peak height and reaction resultant product peak height obtained by fluorescence detection (excitation wavelength 355 nm, measurement wavelength 460 nm) and used as the index of GK activity.
As a control group, the reaction rate was calculated in the same manner as above except that “solution in 50% dimethyl sulfoxide (without test compound)” was used instead of “solution of test compound in 50% dimethyl sulfoxide”.
The reaction rate of the well (test compound addition group) added with the test compound was divided by the reaction rate of the control group and the obtained percentage was taken as the GK activation value (Emax) of the test compound.
As for `CCCC(=O)c1[nH]c(C(CC2CCCC2)c2ccc(S(C)(=O)=O)cc2)nc1F` (stereo not drawn) [Example 17, 1-(2-{2-cyclopentyl-1-[4-(methylsulfonyl)phenyl]ethyl}-4-fluoro-1H-imidazol-5-yl)butan-1-one], the Emax at 10 µM was determined as 188%.

Molecule `CS(=O)(=O)c1ccc(C(CC2CCCC2)c2ncc(C(=O)C3CCC3)[nH]2)cc1` (stereo not drawn) [Example 21, Cyclobutyl(2-{2-cyclopentyl-1-[4-(methylsulfonyl)phenyl]ethyl}-1H-imidazol-5-yl)methanone] registered an Emax at 10 µM of 157%.

`O=C(c1[nH]c(C(CC2CCCC2)c2ccc(S(=O)(=O)C3CC3)cc2)nc1F)C1CC1` (stereo not drawn) [Example 24, (2-{2-cyclopentyl-1-[4-(cyclopropylsulfonyl)phenyl]ethyl}-4-fluoro-1H-imidazol-5-yl)(cyclopropyl)methanone] yielded an Emax at 10 µM of 190%.

Molecule `O=C1CC[C@H](CC(c2ccc(S(=O)(=O)C3CC3)cc2)c2nc(F)c(C(=O)C3CCC3)[nH]2)C1` (stereo partly drawn) [Example 29, (3R)-3-{2-[5-(cyclobutylcarbonyl)-4-fluoro-1H-imidazol-2-yl]-2-[4-(cyclopropylsulfonyl)phenyl]ethyl}cyclopentanone] registered an Emax at 10 µM of 218%.

Take `O=S(=O)(c1ccc(C(CC2CCOCC2)c2ccc(-c3ncc(C(O)CO)s3)[nH]2)cc1)C1CC1` (stereo not drawn) [Example 34, 1-[2-(5-{1-[4-(cyclopropylsulfonyl)phenyl]-2-(tetrahydro-2H-pyran-4-yl)ethyl}-1H-pyrrol-2-yl)-1,3-thiazol-5-yl]ethane-1,2-diol]: the Emax at 10 µM worked out at 178%.

Turning to `O=S(=O)(c1ccc(C(CC2CCOCC2)c2ccc(-c3ccc(C(O)CO)cn3)[nH]2)cc1)C1CC1` (stereo not drawn) [Example 42, 1-[6-(5-{1-[4-(cyclopropylsulfonyl)phenyl]-2-(tetrahydro-2H-pyran-4-yl)ethyl}-1H-pyrrol-2-yl)pyridin-3-yl]ethane-1,2-diol], the Emax at 10 µM was 156%.

`O=S(=O)(c1ccc(C(CC2CCOCC2)c2ccc(-c3ccc(C(CO)CO)cn3)[nH]2)cc1)C1CC1` (stereo not drawn) [Example 53, 2-[6-(5-{1-[4-(cyclopropylsulfonyl)phenyl]-2-(tetrahydro-2H-pyran-4-yl)ethyl}-1H-pyrrol-2-yl)pyridin-3-yl]propane-1,3-diol] returned an Emax at 10 µM of 148%.

In the case of `O=S(=O)(c1ccc(C(CC2CCOCC2)c2ccc(-c3ccc(CN4CC[S+]([O-])CC4)cn3)[nH]2)cc1)C1CC1` (stereo not drawn) [Example 59, 4-{[6-(5-{1-[4-(cyclopropylsulfonyl)phenyl]-2-(tetrahydro-2H-pyran-4-yl)ethyl}-1H-pyrrol-2-yl)pyridin-3-yl]methyl}thiomorpholine 1-oxide], the Emax at 10 µM was found to be 151%.

Turning to `CC(=O)N1CCN(Cc2ccc(-c3ccc(C(CC4CCOCC4)c4ccc(S(=O)(=O)C5CC5)cc4)[nH]3)nc2)CC1` (stereo not drawn) [Example 62, 1-acetyl-4-{[6-(5-{1-[4-(cyclopropylsulfonyl)phenyl]-2-(tetrahydro-2H-pyran-4-yl)ethyl}-1H-pyrrol-2-yl)pyridin-3-yl]methyl}piperazine], the Emax at 10 µM was 153%.

On to `O=S1(=O)CCN(Cc2ccc(-c3ccc(C(CC4CCOCC4)c4ccc(S(=O)(=O)C5CC5)cc4)[nH]3)nc2)CC1` (stereo not drawn) [Example 63], for which the Emax at 10 µM amounted to 154%.

`CS(=O)(=O)c1ccc(C(CC2CCOCC2)c2ccc(-c3ccc(C(O)CO)cn3)[nH]2)cc1Cl` (stereo not drawn) [Example 91, 1-[6-(5-{1-[3-chloro-4-(methylsulfonyl)phenyl]-2-(tetrahydro-2H-pyran-4-yl)ethyl}-1H-pyrrol-2-yl)pyridin-3-yl]ethane-1,2-diol] returned an Emax at 10 µM of 142%.

For the molecule `CC(C)(O)C(O)c1ccc(-c2ccc(C(CC3CCOCC3)c3ccc(S(=O)(=O)C4CC4)cc3)[nH]2)nc1` (stereo not drawn) [Example 127, 1-[6-(5-{1-[4-(cyclopropylsulfonyl)phenyl]-2-(tetrahydro-2H-pyran-4-yl)ethyl}-1H-pyrrol-2-yl)pyridin-3-yl]-2-methylpropane-1,2-diol], the Emax at 10 µM stood at 139%.

`CC(O)c1cnc(-c2ccc(C(CC3CCOCC3)c3ccc(S(=O)(=O)C4CC4)cc3)[nH]2)s1` (stereo not drawn) [Example 151, 1-[2-(5-[1-[4-(cyclopropylsulfonyl)phenyl]-2-(tetrahydro-2H-pyran-4-yl)ethyl]-1H-pyrrol-2-yl)-1,3-thiazol-5-yl]ethanol]: the Emax at 10 µM is 167%.

Regarding `CCS(=O)(=O)CCNCc1cnc(-c2ccc(C(CC3CCOCC3)c3ccc(S(=O)(=O)C4CC4)cc3)[nH]2)s1.Cl` (stereo not drawn) [Example 160, N-{[2-(5-{1-[4-(cyclopropylsulfonyl)phenyl]-2-(tetrahydro-2H-pyran-4-yl)ethyl}-1H-pyrrol-2-yl)-1,3-thiazol-5-yl]methyl}-2-(ethylsulfonyl)ethanamine hydrochloride], the Emax at 10 µM was 155%.

Take `COC(OC)C(C)(O)c1cnc(-c2ccc(C(CC3CCOCC3)c3ccc(S(=O)(=O)C4CC4)cc3)[nH]2)s1` (stereo not drawn) [Example 164, 2-[2-(5-{1-[4-(cyclopropylsulfonyl)phenyl]-2-(tetrahydro-2H-pyran-4-yl)ethyl}-1H-pyrrol-2-yl)-1,3-thiazol-5-yl]-1,1-dimethoxypropan-2-ol]: the maximal effect (Emax) at 10 µM amounted to 148%.

In turn, `CC(O)c1cnc(-c2ccc(C(CC3CCOCC3)c3ccc(S(C)(=O)=O)c(Cl)c3)[nH]2)s1` (stereo not drawn) [Example 172, 1-[2-(5-{1-[3-chloro-4-(methylsulfonyl)phenyl]-2-(tetrahydro-2H-pyran-4-yl)ethyl}-1H-pyrrol-2-yl)-1,3-thiazol-5-yl]ethanol] came in with an Emax at 10 µM of 148%.

The molecule `COCC(O)c1ccc(-c2ccc(C(CC3CCOCC3)c3ccc(S(=O)(=O)C4CC4)cc3)[nH]2)nc1` (stereo not drawn) [Example 177, 1-[6-(5-[1-[4-(cyclopropylsulfonyl)phenyl]-2-(tetrahydro-2H-pyran-4-yl)ethyl]-1H-pyrrol-2-yl)pyridin-3-yl]-2-methoxyethanol] displayed an Emax at 10 µM of 171%.

Molecule `CS(=O)(=O)c1ccc(C(C[C@H]2CCC(=O)C2)c2ccc(-c3ccc(CO)cn3)[nH]2)cc1Cl` (stereo partly drawn) [Example 197] registered an Emax at 10 µM of 142%.

In turn, `CC(O)c1nnc(-c2ccc(C(CC3CCOCC3)c3ccc(S(=O)(=O)C4CC4)cc3)[nH]2)s1` (stereo not drawn) [Example 225, 1-[5-(5-{1-[4-(cyclopropylsulfonyl)phenyl]-2-(tetrahydro-2H-pyran-4-yl)ethyl}-1H-pyrrol-2-yl)-1,3,4-thiadiazol-2-yl]ethanol] registered an Emax at 10 µM of 141%.

`O=S(=O)(c1ccc(C(CC2CCOCC2)c2ccc(-c3nnc(CN4CC(O)C4)s3)[nH]2)cc1)C1CC1` (stereo not drawn) [Example 227, 1-{[5-(5-{1-[4-(cyclopropylsulfonyl)phenyl]-2-(tetrahydro-2H-pyran-4-yl)ethyl}-1H-pyrrol-2-yl)-1,3,4-thiadiazol-2-yl]methyl}azetidin-3-ol] had an Emax at 10 µM of 129%.

In turn, `O=S(=O)(c1ccc(C(CC2CCOCC2)c2ccc(-c3nnc(CN4CCOCC4)s3)[nH]2)cc1)C1CC1` (stereo not drawn) [Example 228, 4-{[5-(5-{1-[4-(cyclopropylsulfonyl)phenyl]-2-(tetrahydro-2H-pyran-4-yl)ethyl}-1H-pyrrol-2-yl)-1,3,4-thiadiazol-2-yl]methyl}morpholine] returned an Emax at 10 µM of 145%.

As for `O=S(=O)(c1ccc(C(CC2CCOCC2)c2ccc(-c3ccc(Cn4cncn4)cn3)[nH]2)cc1)C1CC1` (stereo not drawn) [Example 237, 2-(5-{1-[4-(cyclopropylsulfonyl)phenyl]-2-(tetrahydro-2H-pyran-4-yl)ethyl}-1H-pyrrol-2-yl)-5-(1H-1,2,4-triazol-1-ylmethyl)pyridine], the Emax at 10 µM turned out to be 152%.

Test system in another series: not given
Assay: not given
Conditions: not given
`CCS(=O)(=O)CCNCc1cnc(-c2ccc(C(CC3CCOCC3)c3ccc(S(=O)(=O)C4CC4)cc3)[nH]2)s1.Cl` (stereo not drawn) [Example 160, N-{[2-(5-{1-[4-(cyclopropylsulfonyl)phenyl]-2-(tetrahydro-2H-pyran-4-yl)ethyl}-1H-pyrrol-2-yl)-1,3-thiazol-5-yl]methyl}-2-(ethylsulfonyl)ethanamine hydrochloride]: the melting point was in the range of 127 to 129 °C.

Turning to `O=S(=O)(c1ccc(C(CC2CCOCC2)c2ccc(-c3ccc(Cn4cncn4)cn3)[nH]2)cc1)C1CC1` (stereo not drawn) [Example 237, 2-(5-{1-[4-(cyclopropylsulfonyl)phenyl]-2-(tetrahydro-2H-pyran-4-yl)ethyl}-1H-pyrrol-2-yl)-5-(1H-1,2,4-triazol-1-ylmethyl)pyridine], the melting point was in the range of 152 to 153 °C.

Source of the values: patent US8318746B2, “Nitrogen-containing five-membered heterocyclic compound” (Takeda Pharmaceutical Company Limited, priority 2007, dated 2012).
